For the assay, the target named is T1, human liver cathepsin B (Homo sapiens, UniProt P07858).
T1 construct: purchased Sigma or EMDbiosciences; host or cells: human liver (as named)
Kind of assay: Specificity assay, cathepsin B. It counts as biochemical. The protocol: The specificities of compounds of the present disclosure were determined against a variety of serine proteases: human neutrophil elastase (HNE), porcine pancreatic elastase (PPE) and human pancreatic chymotrypsin and one cysteine protease: human liver cathepsin B. In all cases, a 96-well plate format protocol using colorimetric p-nitroaniline (pNA) substrate or fluorometric Amino-Methyl-Coumarin (AMC) substrate, specific for each enzyme was used as described previously (PCT Patent Application No. WO 00/09543) with some modifications. All enzymes were purchased from Sigma or EMDbiosciences while the substrates were from Bachem.
Each pNA assay included a 2 h enzyme-inhibitor pre-incubation at room temperature followed by addition of substrate and hydrolysis to ˜15% conversion as measured on a Spectramax Pro microplate reader. The cathepsin B assay was initiated by adding substrate to a 10 min enzyme-inhibitor pre-incubation at room temperature, and the assay plate measured immediately using the Cytofluor Series 4000. Compound concentrations varied from 100 to 0.4 μM depending on their potency. […]
The percentage of inhibition was calculated using the formula: [1−((UVinh−UVblank)/(UVctl−UVblank))]×100 […]

The source of these data is patent US20080107625A1, “Inhibitors of Hepatitis C Virus” (Bristol-Myers Squibb Company, priority 2006, published 2008).

Structures are written as SMILES. A value given as a limit tells only on which side of the number the result lay.

For the compound `CC(C)(C)OC(=O)N[C@H]1CN(C2CC2)CCC/C=C\C2C[C@@]2(C(=O)NS(=O)(=O)C2CC2)NC(=O)[C@@H]2C[C@@H](Oc3ccccn3)CN2C1=O` (stereo partly shown) [Compound 1], the IC50 is over 100 µM.
